Counter-ions that a name gives are not always drawn.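 Grown in 96-well plates, cells were treated for 48 hours with each compound at five concentrations. Insufficient inhibition: endpoint recorded as highest concentration tested. The concentration for 50% growth inhibition is given as GI50.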 Activity calls are given as the source filed them. No stated cut-off is given here; in the data, active = GI50 up to about 1.1 µM and inactive = higher.
Key:
Test in all cases: growth of human tumour cells (NCI), 48 h
[1] = test system: SF-295
[2] = test system: SN12C
[3] = test system: XF498
[4] = test system: SNB-78
[5] = test system: MOLT-4
[6] = test system: RXF 393
[7] = test system: M19-MEL
[8] = test system: LXFL 529
[9] = test system: RPMI-8226
[10] = test system: IGROV-1
[11] = test system: SF-268
[12] = test system: HT-29
[13] = test system: MCF7
[14] = test system: NCI/ADR-RES
[15] = test system: 786-0

Measured: GI50

CCOC(=O)C(=O)Nc1c(CC)cccc1C(C)CC (stereo unspecified)
inactive: [1] > 100 µM | [2] > 100 µM | [3] > 100 µM | [4] > 100 µM | [5] > 100 µM | [6] > 100 µM | [7] > 100 µM | [8] > 100 µM | [9] > 100 µM | [10] > 100 µM | [11] > 100 µM | [12] > 100 µM

CCCCc1oc2ccccc2c1C(=O)c1cc(I)c(OCCN(CC)CC)c(I)c1 [AMIODARONE HYDROCHLORIDE]
inactive: [1] 4.63 µM | [2] 7.73 µM | [3] 4.69 µM | [4] 7.6 µM | [5] 3.4 µM | [6] 3.82 µM | [7] 4.67 µM | [9] 3.71 µM | [10] 11.1 µM | [11] 11 µM | [13] 5.19 µM | [14] 5.86 µM | [12] 4.42 µM

CCOC(=O)c1cc(C(=O)O)c(=O)n2c1[nH]c1ccccc12
inactive: [1] > 100 µM | [2] > 100 µM | [3] > 100 µM | [4] > 100 µM | [5] > 100 µM | [6] 24.3 µM | [7] > 100 µM | [8] 75.7 µM | [9] 46.3 µM | [15] > 100 µM | [10] 88.9 µM | [11] 61 µM | [12] > 100 µM

COC1CCC2C(=O)CCCC2O1 (stereo unspecified)
inactive: [1] > 100 µM | [2] > 100 µM | [3] > 100 µM | [4] > 100 µM | [5] > 100 µM | [6] > 100 µM | [7] > 100 µM | [8] > 100 µM | [9] > 100 µM | [15] > 100 µM | [10] > 100 µM | [11] > 100 µM | [12] > 100 µM

Source: ChEMBL document CHEMBL1201862, “PubChem BioAssay data set” (2004)
